From US6489440B1, “Cyclic compounds” (Basilea Pharmaceutica AG, priority 1998, dated 2002)
Numbered stars: 1 amine (or outer) side, 2 acyl side, 3 side chain; on linkers, the order of the positions; unused ones are H or OH. Bridge positions count the residues as written; N and C are the ends. Square brackets hold non-standard residues; d marks the D form. Peptide text beside a SMILES is read from it. ξ: configuration not given here. X3 = CCCCCCCOc1ccc(-c2ccc(CC[C@H](CC(=O)[*:1])N[*:2])cc2)cc1; ξTyr(3-NO2) = NC(Cc1ccc(O)c([N+](=O)[O-])c1)C(=O)O; X7 = CCCCCCCCCCCCC(C)[C@H](CC(=O)[*:1])O[*:2]; X4 = CC(=O)Nc1cc(CC(N[*:1])C(=O)[*:2])ccc1O; X2 = NC(=O)CC(O)C(N[*:1])C(=O)[*:2]; X1 = O=C(C1C(O)CCN1[*:1])[*:2]; ξY = NC(Cc1ccc(O)cc1)C(=O)O; ξHyp = O=C(O)C1CC(O)CN1; ξOrn = NCCCC(N)C(=O)O; ξT = CC(O)C(N)C(=O)O; ξV = CC(C)C(N)C(=O)O; ξA = CC(N)C(=O)O

How the values were obtained:
Solubility = conditions: solvents in which soluble
[1] = Acute toxicity on administration to mice for 4 weeks; assay type: in vivo; conditions: 5 mg/kg and 30 mg/kg
Fusarium solani CF1088 = assay: In vitro antifungal activity, broth micro-dilution; assay type: cell-based; conditions: YNB with 0.2% agarose, 1-2 days at 35° C.
Method: (§1) The in vitro antifungal activities of the representative Aerothricins of the present study were evaluated by determining the 50% inhibitory concentration (IC50), which was calculated as the lowest concentration of an antifungal to inhibit the growth of fungus to […] turbidity compared with the drug-free control growth spectrophotometrically.
(§2) The IC50 values were determined by the broth micro-dilution procedure based on NCCLS Approved Standard with the following minor modifications (National Committee for Clinical Laboratory Standards. (1997) Reference method for broth dilution antifungal susceptibility testing for yeasts. Approved standard. Document M27-A). Yeast Nitrogen Base (YNB; Difco Lab.) supplemented with 1% glucose and 0.25% K2HPO4 was used as testing medium for yeast, the same medium solidified with 0.2% low melting point agarose (BRL) was used for filamentous fungi. Inoculum size was 1-3×10^4 cells/ml, and incubation was performed for 1-2 days at 35° C.

Candida albicans CY1002 = assay: In vitro antifungal activity, broth micro-dilution; assay type: cell-based; conditions: YNB medium, 1-2 days at 35° C.
Method: as §1, §2

[2] = system: Aspegillus fumigatus CF1003; assay: In vitro antifungal activity, broth micro-dilution; assay type: cell-based; conditions: YNB with 0.2% agarose, 1-2 days at 35° C.
Method: as §1, §2

Candida albicans = assay: In vivo antifungal efficacy, systemic candidiasis in mice; parameters: species or system Crj: CD-1 (ICR) mice; conditions: i.v., b.i.d×1 day followed by q.d.×2 days; from survival on day 14
Method: Mice of a conventional immunocompetent mouse strain, Crj: CD-1 (ICR) were used for experimental infection models of systemic candidiasis. 4 weeks old Crj: CD-1 (ICR) mice were used for systemic candidiasis by injecting Candida albicans 5×10^6 conidia/mouse via the tail vein. Treatments were given twice (0, 4 h after infection) on the first day and once daily on following 2 days for systemic candidiasis (b.i.d×1 day followed by q.d.×2 days), intravenously (i.v.). 50% of effective dose (ED50) values was calculated from the survival number at each dose on day 14.

## CCCCCCCCCCCCC(C)[C@@H]1CC(=O)NC(C(C)O)C(=O)NC(C)C(=O)NC(Cc2ccc(O)cc2)C(=O)NC(C(C)C)C(=O)N2CC(O)CC2C(=O)NC(C(C)O)C(=O)NC(C(C)O)C(=O)N2CCC(O)C2C(=O)NC(C(O)CC(N)=O)C(=O)NCC(=O)NC(C(C)O)C(=O)NC(CCCN)C(=O)O1 (stereo partly drawn) [Aerothricin 1] ([ξT][ξA][ξY][ξV][ξHyp][ξT][ξT][X1][X2]G[ξT][ξOrn]; linker N-C via X7)
Solubility
  Solubility: Soluble: water, methanol, dimethylsulfoxide
[1]
  acute toxicity: no acute toxicity

## CCCCCCCOc1ccc(-c2ccc(CC[C@@H]3CC(=O)NC(C(C)O)C(=O)NC(C)C(=O)NC(Cc4ccc(O)cc4)C(=O)NC(C(C)C)C(=O)N4CC(O)CC4C(=O)NC(C(C)O)C(=O)NC(C(C)O)C(=O)N4CCC(O)C4C(=O)NC(C(O)CC(N)=O)C(=O)NCC(=O)NC(C(C)O)C(=O)NC(CCCN)C(=O)N3)cc2)cc1 (stereo partly drawn) [Aerothricin 43] ([ξT][ξA][ξY][ξV][ξHyp][ξT][ξT][X1][X2]G[ξT][ξOrn]; linker N-C via X3)
Fusarium solani CF1088
  In vitro Antifungal activity, IC50: 0.70 mg/L
Candida albicans CY1002
  In vitro Antifungal activity, IC50: 0.05 mg/L
[2]
  In vitro Antifungal activity, IC50: 0.04 mg/L

## CCCCCCCOc1ccc(-c2ccc(CC[C@@H]3CC(=O)NC(C(C)O)C(=O)NC(C)C(=O)NC(Cc4ccc(O)c([N+](=O)[O-])c4)C(=O)NC(C(C)C)C(=O)N4CC(O)CC4C(=O)NC(C(C)O)C(=O)NC(C(C)O)C(=O)N4CCC(O)C4C(=O)NC(C(O)CC(N)=O)C(=O)NCC(=O)NC(C(C)O)C(=O)NC(CCCN)C(=O)N3)cc2)cc1 (stereo partly drawn) [Aerothricin 55] ([ξT][ξA][ξTyr(3-NO2)][ξV][ξHyp][ξT][ξT][X1][X2]G[ξT][ξOrn]; linker N-C via X3)
Fusarium solani CF1088
  In vitro Antifungal activity, IC50: 0.39 mg/L
Candida albicans CY1002
  In vitro Antifungal activity, IC50: 0.04 mg/L
[2]
  In vitro Antifungal activity, IC50: 0.04 mg/L
Candida albicans
  In vivo antifungal activity against systemic candidiasis in mice, ED50 on day 14: <0.3 mg/kg

## CCCCCCCOc1ccc(-c2ccc(CC[C@@H]3CC(=O)NC(C(C)O)C(=O)NC(C)C(=O)NC(Cc4ccc(O)c(NC(C)=O)c4)C(=O)NC(C(C)C)C(=O)N4CC(O)CC4C(=O)NC(C(C)O)C(=O)NC(C(C)O)C(=O)N4CCC(O)C4C(=O)NC(C(O)CC(N)=O)C(=O)NCC(=O)NC(C(C)O)C(=O)NC(CCCN)C(=O)N3)cc2)cc1 (stereo partly drawn) [Aerothricin 57] ([ξT][ξA][X4][ξV][ξHyp][ξT][ξT][X1][X2]G[ξT][ξOrn]; linker N-C via X3)
Fusarium solani CF1088
  In vitro Antifungal activity, IC50: 1.30 mg/L
Candida albicans CY1002
  In vitro Antifungal activity, IC50: 0.14 mg/L
[2]
  In vitro Antifungal activity, IC50: 0.05 mg/L
